Consider 5 compounds from US4426524A, “Heterocyclic substituted benzyl alcohol, insecticidal ester derivatives, and intermediates” (priority 1982, dated 1984).

Data set [1] deals with twospotted spider mite. As to the kind of experiment: Foliar application, twospotted spider mite. It is filed as in vivo. The conditions noted are these: Tetranychus urticae, read-out: Foliar % Kill (ppm). As for the experimental part:
(§1) Foliar Application: The activity of some of the compounds of the invention against various test species selected from pea aphid (Acyrthosiphon pisum), twospotted spider mite (Tetranychus urticae), southern armyworm (Spodoptera eridania), Mexican bean beetle (Epilachna varivestis), and cabbage looper (Tricoplusia ni) was determined by foliar application of the test compound. The test materials were formulated as aqueous solutions containing 10% acetone and 0.25% acetylphenoxypolyethoxyethanol. Activity against pea aphid was determined on English fava bean plants the leaves of which were sprayed to runoff with various concentrations of test solution prior to infestation with adult aphids. Activity against twospotted spider mite was evaluated on pinto bean plants whose leaves were sprayed to runoff with various concentrations of test solution after infestation with adult mites. Activity against the remaining species was evaluated on pinto bean plants whose leaves were sprayed to runoff with various concentrations of test solution before infestation with the appropriate immature insects. Mortality was read approximately 48 hours after treatment.

The subject of data set [2] is Mexican bean beetle. The data set is described as follows: Topical application, Mexican bean beetle. The data set is classed as in vivo, Epilachna varivestis. Particulars: MBB; for Topical % Kill @ 5000 ng/insect: 24 hours. As for the experimental part:
(§2) Topical Application: The compounds of this invention were tested for insecticidal activity against various insect species selected from southern armyworm (Spodoptera eridania), Mexican bean beetle, (Epilachna varivestis), milkweed bug (Oncopeltus fasciatus), and cabbage looper (Tricoplusia ni) by applying to the second or third dorsal thoracic segment of each larvae a one microliter droplet containing 5 mg/mL of test compound in acetone (5000 ng/insect). The test was allowed to stand 24 hours after application and was then read to determine the percent kill.
(§3) To determine the LD50 of the compounds, the topical application test was repeated by applying various amounts of toxicant. Also included among the species tested against for this determination were tobacco budworm (Heliothis virescens), beet armyworm (Spodoptera exigua), and boll weevil (Anthonomus grandis).

Data set [3] has as its system southern armyworm. The data set is described as follows: Foliar application, southern armyworm. The data set is classed as in vivo. Particulars: Spodoptera eridania, read-out: Foliar % Kill (ppm). The protocol: as §1
The test system of data set [4] is southern armyworm. As to the kind of experiment: Topical application, southern armyworm. It is filed as in vivo, Spodoptera eridania. Particulars: SAW; for Topical % Kill @ 5000 ng/insect: 24 hours. As for the experimental part: as §2, §3
In data set [5] the test system is Mexican bean beetle. As to the kind of experiment: Foliar application, Mexican bean beetle. It is filed as in vivo. The conditions noted are these: Epilachna varivestis, read-out: Foliar % Kill (ppm). As for the experimental part: as §1
In data set [6] the test system is pea aphid. As to the kind of experiment: Foliar application, pea aphid. Particulars: Acyrthosiphon pisum, read-out: Foliar % Kill (ppm). It is filed as in vivo. The protocol: as §1
Data set [7] deals with milkweed bug. The data set is described as follows: Topical application, milkweed bug. It is filed as in vivo, Oncopeltus fasciatus. The conditions noted are these: MWB; for Topical % Kill @ 5000 ng/insect: 24 hours. As for the experimental part:
as §2, §3

Read-outs that look alike come from different tables or passages of the source.

For the compound `CC1(C)[C@H](C=C(Cl)Cl)[C@@H]1C(=O)OCc1cccc(-c2ccco2)c1` (relative stereo) [j, [3-(2-furanyl)phenyl]methyl cis-3-(2,2-dichloroethenyl)-2,2-dimethylcyclopropanecarboxylate], the mortality at 500 ppm is 0% in data set [1] (TSM, foliar, 48 hours) and 40% in data set [6] (PA, foliar, 48 hours). Also, the figures for the “Topical % Kill @ 5000 ng/insect” value in data set [2], in data set [4] and in data set [7] were 30%, 100% and 0%, respectively. Also, the mortality at 512 ppm came out at 100% in data set [3] (SAW, foliar, 512 ppm, 48 hours) and 50% in data set [5] (MBB, foliar, 512 ppm, 48 hours). The “Topical LD50” value in data set [4] turned out to be 377 ng/insect.

On to `CC1(C)[C@H](C=C(Cl)C(F)(F)F)[C@@H]1C(=O)OCc1cccc(-c2ccco2)c1` (relative stereo) [k, [3-(2-furanyl)phenyl]methyl cis-3-(2-chloro-3,3,3-trifluoro-1-propenyl)-2,2-dimethylcyclopropanecarboxylate], for which, in data set [1] (TSM, foliar, 64 ppm, 48 hours), the mortality at 64 ppm amounted to 0%. Further, the “Topical LD50” value in data set [2] is given as 510 ng/insect; in data set [4] it was 366 ng/insect. Further, the “Topical % Kill @ 5000 ng/insect” value is listed as 90% in data set [2], 100% in data set [4] and 40% in data set [7]. In addition, the mortality at 512 ppm amounted to 100% in data set [3] (SAW, foliar, 512 ppm, 48 hours); 100% in data set [5] (MBB, foliar, 512 ppm, 48 hours); 100% in data set [6] (PA, foliar, 512 ppm, 48 hours).

For `CC1(C)[C@H](C(=O)OCc2cccc(-c3ccc(Br)o3)c2)[C@@H]1C=C(Cl)Cl` (relative stereo) [l, [3-(5-bromofuranyl)phenyl]methyl cis-3-(2,2-dichloroethenyl)-2,2-dimethylcyclopropanecarboxylate], the mortality at 64 ppm in data set [1] (48 h) was 0%. In addition, the “Topical % Kill @ 5000 ng/insect” value in data set [2] is reported as 35%; in data set [4], 100%; in data set [7], 0%. The mortality at 512 ppm is 100% in data set [3] (48 h), 80% in data set [5] (48 h) and 75% in data set [6] (48 h). In addition, the “Topical LD50” value in data set [4] is reported as 1819 ng/insect.

`Cc1c(COC(=O)[C@H]2[C@@H](C=C(Cl)C(F)(F)F)C2(C)C)cccc1-c1cnccn1` (relative stereo) [p, [2-methyl-3-(pyrazinyl)phenyl]methyl cis-3-(2-chloro-3,3,3-trifluoro-1-propenyl)-2,2-dimethylcyclopropanecarboxylate]: the mortality at 500 ppm in data set [1] (TSM, foliar, 48 hours) stood at 100%; in data set [3] (SAW, foliar, 48 hours) it was 100%; in data set [6] (PA, foliar, 48 hours), 100%. Further, the figures for the “Topical LD50” value in data set [2], in data set [4] and in data set [7] were 93 ng/insect, 1948 ng/insect and 1050 ng/insect, respectively. The “Topical % Kill @ 5000 ng/insect” value in data set [2] amounted to 100%; in data set [4], 90%; in data set [7], 100%. The mortality at 64 ppm in data set [5] (MBB, foliar, 48 hours) amounted to 80%.

As for `Cc1c(COC(=O)[C@@H]2[C@H](C=C(Cl)Cl)C2(C)C)cccc1-c1cnccn1` (relative stereo) [q, [2-methyl-3-(pyrazinyl)phenyl]methyl cis-(2,2-dichloroethenyl)-2,2-dimethylcyclopropanecarboxylate], in data set [1] (TSM, foliar, 16 ppm, 48 hours), the mortality at 16 ppm turned out to be 0%. For the same compound, the “Topical LD50” value in data set [2] worked out at 269 ng/insect; in data set [4], 2387 ng/insect; in data set [7], 4915 ng/insect. Also, the “Topical % Kill @ 5000 ng/insect” value in data set [2], in data set [4] and in data set [7] was 90% in each case. For the same compound, the mortality at 500 ppm in data set [3] (SAW, foliar, 48 hours) amounted to 85%; in data set [6] (PA, foliar, 48 hours) it was 100%. Moreover, the mortality at 64 ppm in data set [5] (MBB, foliar, 48 hours) was 55%.
